According to PMC5010932 (Molecular cancer therapeutics, 2016):

Target: NAMPT (Homo sapiens, UniProt P43490)
Assay: cell-free coupled-enzyme colorimetric assay with recombinant NAMPT
Assay type: biochemical

NAMPT, sequence (P43490 whole entry): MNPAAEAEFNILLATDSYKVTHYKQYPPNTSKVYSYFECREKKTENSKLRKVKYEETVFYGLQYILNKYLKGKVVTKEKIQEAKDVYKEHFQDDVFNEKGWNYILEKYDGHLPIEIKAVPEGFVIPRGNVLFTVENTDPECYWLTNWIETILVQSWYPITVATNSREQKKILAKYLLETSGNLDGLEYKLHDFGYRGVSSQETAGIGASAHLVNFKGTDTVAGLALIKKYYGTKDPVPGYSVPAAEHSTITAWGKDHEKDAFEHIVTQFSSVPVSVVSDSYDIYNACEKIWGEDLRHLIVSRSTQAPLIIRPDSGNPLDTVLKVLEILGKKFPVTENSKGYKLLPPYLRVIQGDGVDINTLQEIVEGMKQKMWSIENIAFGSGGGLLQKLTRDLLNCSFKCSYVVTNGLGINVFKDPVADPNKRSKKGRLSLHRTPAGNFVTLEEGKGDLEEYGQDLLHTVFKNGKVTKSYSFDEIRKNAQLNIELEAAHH

Nc1ccc(/C=C/C(=O)NCc2cc3cc(-c4ccc(C(=O)N5CCC(F)(F)CC5)cc4)cc(-c4ccc(F)cc4)c3o2)cn1 [KPT-9274]
IC50: ~120 nM
